According to paper PMC4163382, “Symbiotic Plant Peptides Eliminate Candida albicans Both In Vitro and in an Epithelial Infection Model and Inhibit the Proliferation of Immortalized Human Cells” (BioMed Research International, 2014):
Ends that are not written are not given here. Peptide text beside a SMILES is read from it.

Key:
[1] = tested on: C. albicans WO-1; format: cell-based, Candida albicans; conditions: for Minimal fungicidal concentration, 3 h: WO-1, 3 h; for Minimal fungicidal concentration, 24 h: WO-1, 24 h
Experimental: (§1) The antifungal activity of the NCR peptides against C. albicans strains and other Candida species was determined in vitro using 96-well flat bottom microtiter plates (Sarstedt). Fifty microliters of dilutions from each peptide (final concentrations in the assays ranged from 2.5 to 100 μg/mL) was added to 50 μL of 10^4 cells mL^−1 and 10^5 cells mL^−1 in LSM. The plates were incubated at 30°C and the peptide concentrations that prevented the germination of yeast cells were determined by microscopic analysis and measurement of absorbance at 600 nm with a microtiter plate reader (FLUOstar OPTIMA; BMG Labtech) after 24 and 48 hours. Minimal inhibitory concentration (MIC) was determined as the lowest concentration of the peptide at which there was no visible and measurable growth after 24 hours of incubation. To determine whether the antifungal effect was fungistatic or fungicidal, 10 μL from each treatment was dropped onto solid YPD plate after 3 and 24 hours. Plates were incubated at 30°C for 48 hours and developing colonies were observed. Minimal fungicidal concentration (MFC) was defined where no fungal growth could be observed.

[2] = tested on: C. albicans strains WO-1 and Sc 5314; assay: Microdilution antifungal assay, summary for C. albicans; format: cell-based, Candida albicans; conditions: for Anticandidal activity against the yeast form of growing C. albicans: strains WO-1 and Sc 5314, LSM medium, microdilution plate assay
Experimental: as §1

[3] = tested on: PK E6/E7 vaginal epithelial cells; assay: MTT assay, cytotoxicity on human epithelial cells; format: cell-based; conditions: 10 μg/mL, MTT assay, cytotoxic control
Experimental: The immortalized human vaginal epithelial cell line PK E6/E7 [15] was cultured in serum-free CKM supplemented with 0.005 μg/mL recombinant epidermal growth factor, 50 μg/mL bovine pituitary extract, L-glutamine, and antibiotic/antimycotic solution (Life Technologies) in a CO2 thermostat at 37°C [16]. Cells at 60–70% confluence were used in subsequent experiments.
MTT Assay. PK E6/E7 vaginal epithelial cells were seeded in the wells of a 96-well plate at a density of 1 × 10^4 cells per well in a final volume of 100 μL. CKM was then aspirated and 100 μL of the appropriate peptide diluted in PBgluc was added. After 3 hours of incubation at 37°C, the peptide solution was removed, and the cells were let to regenerate in CKM for 24 hours. Then 5 mg/mL 3-[4,5-dimethylthiazol-2-yl]-2,5-diphenyltetrazolium bromide (MTT) was added to each well and the plate was placed to 37°C for 4 hours. The amount of formazan formed by the activity of the mitochondrial succinate dehydrogenase of living cells was measured by using a microtiter plate reader (FLUOstar OPTIMA) at the wavelength of 560 nm.
10 μg/mL of primycin, a macrolide lactone antibiotic complex that rapidly kills PK cells, was used as a control for cytotoxicity in both assays.
MTT assays and impedance measurements were performed in at least four technical parallels and two biological replicates; all the data are presented as mean ± standard deviation. Significance was calculated with Newman-Keuls post hoc test using the GraphPad Prism version 5 for Windows and a probability (P) value of less than 0.05 was considered significant.

| Compound | Minimal fungicidal concentration, 3 h [1] | Minimal fungicidal concentration, 24 h [1] | Anticandidal activity against the yeast form of growing C. albicans [2] | Efficiency of killing epithelial cells [3] | MIC ([2]; Candida albicans, SC5314, comparator value given in text, strain, method and source not given, read-out: MIC of amphotericin B) [µM] | MIC of amphotericin B ([2]; comparator value given in text, strain, method and source not given) |
| --- | --- | --- | --- | --- | --- | --- |
| CSCC[C@H](NC(=O)[C@H](Cc1ccccc1)NC(=O)[C@H](CCCCN)NC(=O)[C@@H]1CCCN1C(=O)[C@H](CS)NC(=O)[C@H](CCCNC(=N)N)NC(=O)CNC(=O)[C@H](CC(=O)O)NC(=O)[C@H](CCCNC(=N)N)NC(=O)CNC(=O)[C@H](CS)NC(=O)[C@H](CC(C)C)NC(=O)[C@@H](NC(=O)[C@H](CCCNC(=N)N)NC(=O)[C@@H](N)CCSC)C(C)C)C(=O)N[C@@H](CS)C(=O)N[C@@H](CCCNC(=N)N)C(=O)N[C@H](C(=O)N[C@@H](Cc1ccccc1)C(=O)N[C@@H](CC(C)C)C(=O)O)[C@@H](C)O [NCR280] (H-MRVLCGRDGRCPKFMCRTFL-OH) | 10 (±2) μg/mL | 8 (±3) μg/mL | – | – | – | – |
| ITISNSSFGRIVYWNCKTDKDCKQHRGFNFRCRSGNCIPIRR (cysteines drawn unpaired) [NCR183] | 16.5 (±12) μg/mL | 15.5 (±13) μg/mL | exhibited anticandidal activity | – | – | – |
| CC[C@H](C)[C@H](N)C(=O)N[C@@H](Cc1ccc(O)cc1)C(=O)N[C@@H](Cc1ccccc1)C(=O)N1CCC[C@H]1C(=O)N[C@H](C(=O)N[C@@H](CO)C(=O)N[C@@H](CCCNC(=N)N)C(=O)N1CCC[C@H]1C(=O)N[C@@H](CS)C(=O)N[C@H](C(=O)N[C@H](C(=O)N[C@@H](CC(=O)O)C(=O)N[C@@H](CCCCN)C(=O)N[C@@H](CC(=O)O)C(=O)N[C@@H](CS)C(=O)N1CCC[C@H]1C(=O)N[C@@H](CC(N)=O)C(=O)N[C@@H](CCSC)C(=O)N[C@@H](CCCCN)C(=O)N[C@@H](Cc1c[nH]cn1)C(=O)N[C@@H](Cc1ccc(O)cc1)C(=O)N[C@@H](CCCCN)C(=O)N[C@@H](C)C(=O)N[C@@H](CCCCN)C(=O)N[C@@H](CS)C(=O)N[C@@H](CCCNC(=N)N)C(=O)N[C@@H](CCCCN)C(=O)NCC(=O)N[C@@H](Cc1ccccc1)C(=O)N[C@@H](CS)C(=O)N[C@H](C(=O)N[C@@H](CO)C(=O)N[C@@H](CO)C(=O)N[C@@H](CCCNC(=N)N)C(=O)N[C@H](C(=O)N[C@@H](CCCNC(=N)N)C(=O)O)C(C)C)[C@@H](C)CC)[C@@H](C)O)[C@@H](C)CC)C(C)C [NCR147] (H-IYFPVSRPCITDKDCPNMKHYKAKCRKGFCISSRVR-OH; N-terminus and C-terminus assumed) | 8 (±6.5) μg/mL | 9 (±4) μg/mL | exhibited anticandidal activity | – | – | – |
| CC[C@H](C)[C@H](NC(=O)[C@H](CC(N)=O)NC(=O)[C@H](Cc1c[nH]cn1)NC(=O)[C@@H]1CCCN1C(=O)[C@@H]1CCCN1C(=O)[C@H](CCSC)NC(=O)[C@H](CCCNC(=N)N)NC(=O)[C@@H]1CCCN1C(=O)[C@H](CS)NC(=O)[C@H](CC(=O)O)NC(=O)[C@H](CCCCN)NC(=O)[C@H](CC(=O)O)NC(=O)[C@@H](NC(=O)[C@H](CC(C)C)NC(=O)[C@H](CS)NC(=O)[C@@H]1CCCN1C(=O)[C@H](CCCNC(=N)N)NC(=O)[C@H](CC(C)C)NC(=O)[C@@H](NC(=O)[C@@H](N)CCSC)[C@@H](C)O)[C@@H](C)O)C(=O)N[C@@H](CCCCN)C(=O)N[C@@H](CS)C(=O)N[C@@H](CCCNC(=N)N)C(=O)N[C@@H](CCCCN)C(=O)NCC(=O)N[C@@H](Cc1c[nH]cn1)C(=O)N[C@@H](CS)C(=O)N[C@H](C(=O)N1CCC[C@H]1C(=O)N[C@H](C(=O)NCC(=O)N[C@@H](CCCCN)C(=O)N1CCC[C@H]1C(=O)N[C@@H](Cc1ccccc1)C(=O)N[C@@H](CCCCN)C(=O)O)[C@@H](C)CC)C(C)C [NCR137] (H-MTLRPCLTDKDCPRMPPHNIKCRKGHCVPIGKPFK-OH; N-terminus and C-terminus assumed) | 20 (±2.5) μg/mL | 25 (±3) μg/mL | exhibited anticandidal activity | – | – | – |
| primycin [reference compound] | – | – | – | about 90% | – | – |
| CC[C@H](C)[C@H](NC(=O)[C@H](CCCNC(=N)N)NC(=O)[C@H](CCCNC(=N)N)NC(=O)[C@H](CCCNC(=N)N)NC(=O)[C@@H](NC(=O)[C@H](CS)NC(=O)[C@H](Cc1ccc(O)cc1)NC(=O)CNC(=O)[C@H](CCCCN)NC(=O)[C@H](CCCNC(=N)N)NC(=O)[C@H](CS)NC(=O)[C@H](CCCNC(=N)N)NC(=O)[C@H](C)NC(=O)[C@H](CCCNC(=N)N)NC(=O)[C@H](Cc1ccc(O)cc1)NC(=O)[C@H](CC(N)=O)NC(=O)[C@H](CCCCN)NC(=O)[C@@H](NC(=O)[C@@H](NC(=O)[C@H](CO)NC(=O)[C@H](CS)NC(=O)[C@H](CCC(=O)O)NC(=O)[C@H](CCCCN)NC(=O)[C@H](CC(=O)O)NC(=O)[C@H](CO)NC(=O)[C@@H](NC(=O)[C@H](CS)NC(=O)[C@@H]1CCCN1C(=O)[C@H](CCCCN)NC(=O)[C@H](CO)NC(=O)[C@H](CC(C)C)NC(=O)[C@H](CCC(N)=O)NC(=O)[C@@H](NC(=O)[C@H](Cc1ccccc1)NC(=O)[C@H](C)N)[C@@H](C)CC)[C@@H](C)CC)[C@@H](C)CC)C(C)C)C(C)C)C(=O)N[C@@H](CCCNC(=N)N)C(=O)O [NCR044] (H-AFIQLSKPCISDKECSIVKNYRARCRKGYCVRRRIR-OH; N-terminus and C-terminus assumed) | 11 (±2) μg/mL | 6.25 (±1) μg/mL | exhibited anticandidal activity | – | – | – |
| CC[C@H](C)[C@H](NC(=O)[C@H](Cc1ccc(O)cc1)NC(=O)[C@H](CC(N)=O)NC(=O)[C@H](CCCNC(=N)N)NC(=O)[C@@H](NC(=O)[C@H](CCC(N)=O)NC(=O)[C@H](CCCNC(=N)N)NC(=O)[C@H](CS)NC(=O)[C@H](CC(=O)O)NC(=O)[C@H](CCCCN)NC(=O)[C@H](CC(N)=O)NC(=O)[C@@H](NC(=O)[C@@H](NC(=O)[C@H](CS)NC(=O)[C@H](CC(N)=O)NC(=O)[C@H](CCCNC(=N)N)NC(=O)[C@H](CO)NC(=O)[C@@H](NC(=O)[C@@H]1CCCN1C(=O)[C@H](CC(C)C)NC(=O)[C@H](Cc1ccccc1)NC(=O)[C@H](C)N)[C@@H](C)O)[C@@H](C)CC)[C@@H](C)O)C(C)C)C(=O)N[C@@H](C)C(=O)N[C@@H](CCCNC(=N)N)C(=O)N[C@@H](CS)C(=O)N[C@@H](CCCNC(=N)N)C(=O)N[C@@H](CCCCN)C(=O)NCC(=O)N[C@@H](CCC(N)=O)C(=O)N[C@@H](CS)C(=O)N[C@@H](CC(C)C)C(=O)N[C@@H](CCC(N)=O)C(=O)N[C@@H](CO)C(=O)N1CCC[C@H]1C(=O)N[C@H](C(=O)N[C@@H](CCCNC(=N)N)C(=O)O)C(C)C [NCR030] (H-AFLPTSRNCITNKDCRQVRNYIARCRKGQCLQSPVR-OH; N-terminus and C-terminus assumed) | 12.5 (±2) μg/mL | 16.5 (±5) μg/mL | exhibited anticandidal activity | – | – | – |
| C[C@@H]1[C@H](O)[C@@H](C)/C=C/C=C/C=C/C=C/C=C/C=C/C=C/[C@H](O[C@@H]2O[C@H](C)[C@@H](O)[C@H](N)[C@@H]2O)C[C@@H]2O[C@](O)(C[C@@H](O)C[C@@H](O)[C@H](O)CC[C@@H](O)C[C@@H](O)CC(=O)O[C@H]1C)C[C@H](O)[C@H]2C(=O)O [amphotericin B, reference compound] | – | – | – | – | 1.69 | ~ 1.7 μM |
